Measured values taken from patent US11439707B2, “Hypocrellin derivative substituted both in a peri-position and in 2-position by amino, preparation method, and application thereof” (priority 2017, dated 2022).

Assays:
[1] = absorption spectrum (maximum absorption wavelength, molar extinction coefficient); format: physicochemical
[2] = singlet oxygen efficiency test, reference rose bengal; format: physicochemical

Row | SMILES | maximum absorption wavelength [1] [nm] | molar extinction coefficient [1] | singlet oxygen yield [2] [%]
1 | COCCOCCOCCOCCOCCOCCOCCOCCOCCOCCOCCOCCOC(=O)CCCNc1c2c3c4c(c(OC)c(=O)c5c(O)cc(OC)c(c6c(OC)cc(NCCCC(=O)OCCOCCOCCOCCOCCOCCOCCOCCOCCOCCOCCOCCOC)c(c1=O)c63)c54)CC(C)=C2 [HC-8c-PEG12] | 628 | 32,500 M^−1cm^−1 | 38
2 | COc1c(NC2CCC(C(=O)O)C2)c2c(=O)cc(OC)c3c4c(OC)cc(=O)c5c(O)c(NC6CCC(C(=O)O)C6)c6c(c(c1C(C(C)=O)C(C)=C6)c23)c54 (stereo not drawn) [HB-19b] | 620 | 25,000 M^−1cm^−1 | 22
3 | COc1c2c3c4c(c(NCC(=O)O)c(=O)c5c(NCC(=O)O)cc(OC)c(c6c(OC)cc(O)c(c1=O)c63)c54)C=C(C)C2C(C)=O (stereo not drawn) [HB-7c] | 618 | 27,500 M^−1cm^−1 | 27
4 | CCNc1c2c3c4c(c(OC)c(=O)c5c(O)cc(OC)c(c6c(OC)c(SCCO)c(NC7CCCC7)c(c1=O)c36)c54)C(C(C)=O)C(C)=C2 (stereo not drawn) [HB-S-44c] | 628 | 21,000 M^−1cm^−1 | 20
5 | COCCOCCOCCOCCOCCOCCOCCC(=O)N1CCC(CNc2c(O)c3c(=O)c(Br)c(OC)c4c5c(OC)cc(=O)c6c(NCC7CCN(C(=O)CCOCCOCCOCCOCCOCCOCCOC)CC7)c(OC)c7c(c(c2C=C(C)C7C(C)=O)c34)c65)CC1 (stereo not drawn) [HB-31b-Br-PEG6] | 624 | 31,500 M^−1cm^−1 | 31
6 | COCCOCCOCCOCCOCCOCCOCCOCCOCCOCCOCCOCCOC(=O)CCCCCNc1c2c3c4c(c(OC)c(=O)c5c(NCCCCCC(=O)OCCOCCOCCOCCOCCOCCOCCOCCOCCOCCOCCOCCOC)cc(OC)c(c6c(OC)cc(O)c(c1=O)c63)c54)CC(C)=C2 [HC-9d-PEG12] | 625 | 31,500 M^−1cm^−1 | 32
7 | COc1c(O)c2c(=O)cc(OC)c3c4c(OC)cc(=O)c5c(NCS(=O)(=O)O)c(NCCCS(=O)(=O)O)c6c(c(c1CC(C)=C6)c23)c54 [HC-45a] | 613 | 21,000 M^−1cm^−1 | 18
8 | COc1c2c3c4c(c(NC(CS)C(=O)O)c(=O)c5c(NC(CS)C(=O)O)cc(OC)c(c6c(OC)cc(O)c(c1=O)c63)c54)C=C(C)C2C(C)=O (stereo not drawn) [HB-25c] | 632 | 21,500 M^−1cm^−1 | 20
9 | COCCOCCOCCOCCOCCOCCOCCN1C(=O)CN(C(=O)OCCNc2c(O)c3c(=O)cc(OC)c4c5c(OC)cc(=O)c6c(NCCOC(=O)N7CC(=O)N(CCOCCOCCOCCOCCOCCOCCOC)C(=O)C7)c(OC)c7c(c(c2C=C(C)C7C(C)=O)c34)c65)CC1=O (stereo not drawn) [HB-40b-PEG6] | 624 | 31,000 M^−1cm^−1 | 34
10 | CCNc1c2c3c4c(c(OC)c(=O)c5c(O)cc(OC)c(c6c(OC)cc(NC7CCCC7)c(c1=O)c63)c54)C(C(C)=O)C(C)=C2 (stereo not drawn) [HB-44c] | 624 | 21,000 M^−1cm^−1 | 20
11 | COc1c(NCCC(=O)O)c2c(=O)cc(OC)c3c4c(OC)cc(=O)c5c(O)c(NCCC(=O)O)c6c(c(c1C(C(C)=O)C(C)=C6)c23)c54 (stereo not drawn) [HB-10b] | 615 | 31,500 M^−1cm^−1 | 34
12 | COCCOCCOCCOCCOCCOCCOC(=O)CCCNc1c(O)c2c(=O)cc(OC)c3c4c(OC)cc(=O)c5c(NCCCC(=O)OCCOCCOCCOCCOCCOCCOC)c(OC)c6c(c(c1C=C(C)C6)c23)c54 [HC-8b-PEG6] | 624 | 30,000 M^−1cm^−1 | 32
13 | COCCOCCOCCOCCOCCOCCOC(=O)CCCNc1c2c3c4c(c(OC)c(=O)c5c(O)cc(OC)c(c6c(OC)cc(NCCCC(=O)OCCOCCOCCOCCOCCOCCOC)c(c1=O)c63)c54)C(C(C)=O)C(C)=C2 (stereo not drawn) [HB-8c-PEG6] | 630 | 32,500 M^−1cm^−1 | 34
14 | COc1c2c3c4c(c(NCCCC(=O)OCCCCCC[N+](C)(C)C)c(=O)c5c(NCCCC(=O)OCCCCCC[N+](C)(C)C)cc(OC)c(c6c(OC)cc(O)c(c1=O)c63)c54)C=C(C)C2 [HC-8c-C6-N^+] | 632 | 32,500 M^−1cm^−1 | 35
15 | COc1c2c3c4c(c(NCCOC(=O)N5CC(=O)NC(=O)C5)c(=O)c5c(O)cc(OC)c(c6c(OC)cc(NCCOC(=O)N7CC(=O)NC(=O)C7)c(c1=O)c63)c54)C=C(C)C2C(C)=O (stereo not drawn) [HB-40d] | 628 | 31,500 M^−1cm^−1 | 30
16 | CCNc1c2c3c4c(c(OC)c(=O)c5c(NC6CCCC6)cc(OC)c(c6c(OC)cc(O)c(c1=O)c63)c54)C(C(C)=O)C(C)=C2 (stereo not drawn) [HB-44d] | 622 | 21,500 M^−1cm^−1 | 21
17 | COCCOCCOCCOCCOCCNC(=O)C1CCC(CNc2c(O)c3c(=O)cc(OC)c4c5c(OC)cc(=O)c6c(NCC7CCC(C(=O)NCCOCCOCCOCCOCCOC)CC7)c(OC)c7c(c(c2C=C(C)C7)c34)c65)CC1 (stereo not drawn) [HC-13b-NH-PEG4] | 624 | 30,000 M^−1cm^−1 | 32
18 | COCCOCCOCCOCCOCCOCCOC(=O)C1CCCC(Nc2c(O)c3c(=O)cc(OC)c4c5c(OC)cc(=O)c6c(NC7CCCC(C(=O)OCCOCCOCCOCCOCCOCCOC)C7)c(OC)c7c(c(c2C=C(C)C7C(C)=O)c34)c65)C1 (stereo not drawn) [HB-15b-PEG6] | 624 | 30,000 M^−1cm^−1 | 34
19 | COc1c2c3c4c(c(NCc5ccccn5)c(=O)c5c(NCc6ccccn6)cc(OC)c(c6c(OC)cc(O)c(c1=O)c63)c54)C=C(C)C2C(C)=O (stereo not drawn) [HB-38c] | 628 | 20,000 M^−1cm^−1 | 18
20 | COc1c2c3c4c(c(NCCO)c(=O)c5c(O)cc(OC)c(c6c(OC)cc(NCCO)c(c1=O)c63)c54)C=C(C)C2C(C)=O (stereo not drawn) [HB-2d] | 629 | 30,000 M^−1cm^−1 | 26
21 | COCCOCCOCCOCCOCCOCCOC(=O)CCCCCNc1c(O)c2c(=O)cc(OC)c3c4c(OC)cc(=O)c5c(NCCCCCC(=O)OCCOCCOCCOCCOCCOCCOC)c(OC)c6c(c(c1C=C(C)C6)c23)c54 [HC-9b-PEG6] | 622 | 30,500 M^−1cm^−1 | 30
22 | COc1c(O)c2c(=O)cc(OC)c3c4c(OC)cc(=O)c5c(NCCCC(=O)O)c(NCCCC(=O)O)c6c(c(c1CC(C)=C6)c23)c54 [HC-8a] | 620 | 28,500 M^−1cm^−1 | 26
23 | COc1c(O)c2c(=O)cc(OC)c3c4c(OC)c(Br)c(=O)c5c(NCCNCCOCCO)c(NCCNCCOCCO)c6c(c(c1C(C(C)=O)C(C)=C6)c23)c54 (stereo not drawn) [HB-5a-Br-PEG1] | 622 | 30,500 M^−1cm^−1 | 28
